Numbers after ± are expanded uncertainties.
Details: for molar entropy: 101.33 kPa, Crystal 1, Vacuum adiabatic calorimetry

[Al+3].[Al+3].[Co+2].[O-2].[O-2].[O-2].[O-2] [aluminium cobalt oxide]
Details | Triple point temperature [K] | molar entropy [J/K/mol]
15 K | – | 2.91 ± 0.04
20 K | – | 4.1 ± 0.05
25 K | – | 5.02 ± 0.05
30 K | – | 5.79 ± 0.08
35 K | – | 6.5 ± 0.08
40 K | – | 7.21 ± 0.08
45 K | – | 7.95 ± 0.08
50 K | – | 8.75 ± 0.09
55 K | – | 9.61 ± 0.09
60 K | – | 10.56 ± 0.09
65 K | – | 11.58 ± 0.09
70 K | – | 12.68 ± 0.1
75 K | – | 13.85 ± 0.1
80 K | – | 15.1 ± 0.11
85 K | – | 16.42 ± 0.11
90 K | – | 17.81 ± 0.33
95 K | – | 19.26 ± 0.33
100 K | – | 20.77 ± 0.33
105 K | – | 22.33 ± 0.33
110 K | – | 23.96 ± 0.34
120 K | – | 27.36 ± 0.34
130 K | – | 30.94 ± 0.35
140 K | – | 34.68 ± 0.35
150 K | – | 38.55 ± 0.36
160 K | – | 42.52 ± 0.36
170 K | – | 46.6 ± 0.37
180 K | – | 50.73 ± 0.38
190 K | – | 54.92 ± 0.38
200 K | – | 59.14 ± 0.39
210 K | – | 63.39 ± 0.4
220 K | – | 67.65 ± 0.4
230 K | – | 71.9 ± 0.41
240 K | – | 76.15 ± 0.41
250 K | – | 80.37 ± 0.42
260 K | – | 84.57 ± 0.43
270 K | – | 88.74 ± 0.43
280 K | – | 92.88 ± 0.44
290 K | – | 97 ± 0.45
298.15 K | – | 100.31 ± 0.45
300 K | – | 101.06 ± 0.45
310 K | – | 105.07 ± 0.46
320 K | – | 109.05 ± 0.46
330 K | – | 112.99 ± 0.47
340 K | – | 116.88 ± 0.48
350 K | – | 120.72 ± 0.48
360 K | – | 124.52 ± 0.49
370 K | – | 128.28 ± 0.49
380 K | – | 131.99 ± 0.5
390 K | – | 135.65 ± 0.5
Crystal 2, Adiabatic calorimetry | 9 ± 0.2 | –

Source: the NIST ThermoML archive (doi:10.1016/j.jct.2009.01.014)
